Data published in PubChem BioAssay (NCI).
Values joined by “and” are separate entries in the source; they are usually repeats but may differ in a detail not shown here. Identical values can stand only once.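 Compound exposure: 48 hours, 5 concentrations, 96-well plates. The concentration for 50% growth inhibition is given as GI50. TGI: total growth inhibition.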 *1 amine or outer side, *2 acyl side, *3 side chain or, on linkers, in order; H or OH if unused. Where a SMILES comes first, the peptide text is derived from it. [ ]: non-standard residue; d: D form. X32 = C[C@H](N[*:1])C(=O)C(C)(C)C(=O)[*:2]; Hmpa(2S,3S) = CC[C@H](C)[C@H](O)C(=O)O; NMeY = CN[C@@H](Cc1ccc(O)cc1)C(=O)O; NMeL = CN[C@@H](CC(C)C)C(=O)O; NMeV = CN[C@H](C(=O)O)C(C)C; βAla = NCCC(=O)O

Assays:
Experiment in all cases: DTP human tumour cell line panel, 48 h
CAKI-1 renal = tested on: CAKI-1 renal
MCF7 breast = tested on: MCF7 breast
MALME-3M melanoma = tested on: MALME-3M melanoma
UACC-62 melanoma = tested on: UACC-62 melanoma
SNB-75 CNS = tested on: SNB-75 CNS
SR leukemia = tested on: SR leukemia
SNB-19 CNS = tested on: SNB-19 CNS
HCT-15 colon = tested on: HCT-15 colon
NCI/ADR-RES ovarian = tested on: NCI/ADR-RES ovarian
HS 578T breast = tested on: HS 578T breast

Row | SMILES | TGI (CAKI-1 renal) | TGI (MCF7 breast) | TGI (MALME-3M melanoma) | TGI (UACC-62 melanoma) | TGI (SNB-75 CNS) | TGI (SR leukemia) | TGI (SNB-19 CNS) | TGI (HCT-15 colon) [µM] | TGI (NCI/ADR-RES ovarian) [µM] | TGI (HS 578T breast) | GI50 (MCF7 breast) [µM] | GI50 (UACC-62 melanoma) [µM] | GI50 (SNB-75 CNS) [µM] | GI50 (SR leukemia) [µM] | GI50 (SNB-19 CNS) [µM] | GI50 (HCT-15 colon) [µM] | GI50 (NCI/ADR-RES ovarian) | GI50 (HS 578T breast) [µM]
1 | CC[C@H](C)[C@@H]1OC(=O)CCNC(=O)[C@@H](C)NC(=O)C(C)(C)C(=O)[C@H](C)NC(=O)[C@H](Cc2ccc(OC)cc2)N(C)C(=O)[C@H](C(C)C)N(C)C(=O)CNC(=O)[C@H](CC(C)C)N(C)C(=O)CNC1=O (cyclo(G[NMeL]G[NMeV][NMeY](Me)[X32][dA][βAla][Hmpa(2S,3S)])) | 6.49 µM | > 50 µM | 10.3 µM | > 50 µM | 3.52 µM | > 25.9 µM | 9.63 µM | > 50 | > 50 | 20.8 µM |  |  |  |  |  |  |  | 
2 | CCCCCCCCCCCCCCCCCCN(C)CC(COP(=O)([O-])OCC[N+](C)(C)C)OC (centres undefined) | 20.9 µM | > 62.3 µM | 43.3 µM | 32.9 µM | 15.6 µM | 28.6 µM | 18.5 µM | 23.5 | > 100 | > 85.8 µM |  |  |  |  |  |  |  | 
3 | C/C(=N\NC(=S)NCCCNC(=S)N/N=C(\C)c1ccccn1)c1ccccn1 | > 49.9 µM | > 50.6 µM | 17.5 µM | 14.2 µM | 31.7 µM | 6.19 µM | > 69.7 µM | > 30.7 | 8.19 | > 100 µM |  |  |  |  |  |  |  | 
4 | CC(C)(C)c1cc(O)ccc1O | > 70.4 µM | > 100 µM | > 27.6 µM | > 100 µM | 25.2 µM | 26.6 µM | > 100 µM | > 100 | > 100 | > 100 µM |  |  |  |  |  |  |  | 
5 | C(=C\c1ccco1)/c1cccc(/C=C/c2ccco2)n1 | > 50 µM | > 50 µM | > 50 µM | > 50 µM | 33.1 µM | > 50 µM | > 50 µM | > 50 | > 50 | > 50 µM |  |  |  |  |  |  |  | 
6 | CCOC(=O)c1c(N2CCOCC2)[nH]c(=O)c(C(c2ccco2)c2c(O)c(C(=O)OCC)c(N3CCOCC3)[nH]c2=O)c1O | > 100 µM | > 100 µM | > 100 µM | > 100 µM | > 100 µM | > 100 µM | > 100 µM | > 100 | > 100 | > 100 µM |  |  |  |  |  |  |  | 
7 | CC(=O)Nc1ccc(C2SCc3nc4ccccc4n32)cc1 (centres undefined) | > 100 µM | > 100 µM | > 86.8 µM | > 100 µM | > 100 µM | > 100 µM | > 100 µM | > 100 | > 100 | > 95.5 µM |  |  |  |  |  |  |  | 
8 | Cc1ccccc1S(=O)(=O)Nn1cnc2ccc(S(=O)(=O)Nc3ccc(Cl)cc3)cc2c1=O | > 100 µM | > 100 µM | > 100 µM | > 100 µM | > 100 µM | > 100 µM | > 100 µM | > 100 | > 100 | > 100 µM |  |  |  |  |  |  |  | 
9 | CCCCCCCCCCCCC(O)[C@H]1CC[C@H](C(O)CCCCCC(=O)CCCCC2CC(C(C)=O)C(=O)O2)O1 (some centres undefined) | 50.3 µM | > 51.6 µM | 23.7 µM | 21.6 µM | 59.3 µM | > 38.1 µM | 73.9 µM | > 70.9 | 40.4 | 51.2 µM | 1.38 | 3.84 | 7.11 | 1.76 | 4.56 | 6.51 | 1.87 µM | 4.42
10 | CC1=C(C)Cc2c(O)ccc(O)c2C1 | 34.1 µM | 51.3 µM | 31.6 µM | 30.1 µM | 31.3 µM | 38.8 µM | > 100 µM | 33.1 | > 100 | 33.6 µM |  |  |  |  |  |  |  | 
11 | COC(=O)C1OC(O[C@H]2CC[C@]3(C)[C@H]4CC=C5[C@@H]6CC(C)(C)CC[C@]6(C(=O)OC6OCC(O)C(O)C6OC6OC(C)C(OC7OCC(O)C(O)C7O)C(O)C6O)CC[C@@]5(C)[C@]4(C)CC[C@H]3C2(C)C)C(O)C(O)C1O (some centres undefined) | 25.9 µM and 34.9 µM | 27.2 µM and 25.7 µM | 29 µM and 32.8 µM | 32 µM and 32.5 µM | 30 µM and 30.4 µM | 32 µM and 24.9 µM | 31.2 µM and 27.2 µM | > 100 | > 100 | 39.4 µM and 35.9 µM |  |  |  |  |  |  | 24 µM and > 100 µM | 
12 | Nc1onc2c1Cc1c(noc1N)-c1ccccc1-2 | > 100 µM | > 100 µM | > 100 µM | > 100 µM | 95.1 µM | > 100 µM | > 100 µM | > 100 | > 100 | 83.8 µM |  |  |  |  |  |  |  | 
13 | COc1cc(/C=C/C(=O)C2(C(=O)/C=C/c3cc(OC)c(OC)c(OC)c3)CCCCC2)cc(OC)c1OC | > 100 µM | > 100 µM | > 100 µM | 53.8 µM | > 100 µM | > 100 µM | > 100 µM | > 100 | > 100 | 89.8 µM |  |  |  |  |  |  |  | 
14 | N[C@H]1CCCC[C@@H]1N1C(=O)c2ccccc2C1(O)c1ccc(Cl)cc1 (some centres undefined) | 20.7 µM | 27.5 µM | 27.8 µM | 25.9 µM | 7.98 µM | 29.9 µM | 27.6 µM | 26.7 | 30.8 | 54.4 µM |  |  |  |  |  |  |  | 
15 | Cc1cc(=O)oc2c(CNC(Cc3ccccc3)C(=O)O)c(O)ccc12 (centres undefined) | > 100 µM | > 100 µM | > 100 µM | > 100 µM | > 100 µM | > 100 µM | > 100 µM | > 100 | > 100 | > 100 µM |  |  |  |  |  |  |  | 
16 | Cc1ccc(NC(=O)c2cc(S(=O)(=O)Nc3nc4ncccc4[nH]3)c(SSc3cc(Cl)c(C(=O)Nc4ccc(C)cc4)cc3S(=O)(=O)Nc3nc4ncccc4[nH]3)cc2Cl)cc1 | > 100 µM | > 100 µM | > 100 µM | > 100 µM | > 100 µM | > 100 µM | > 100 µM | > 100 | > 100 | > 100 µM |  |  |  |  |  |  |  | 
17 | O=C(NCCCCCCNC(=O)c1cc(-c2ccccc2)nc2ccccc12)c1cc(-c2ccccc2)nc2ccccc12 | > 100 µM | > 100 µM | > 100 µM | > 100 µM | > 100 µM | > 100 µM | > 100 µM | > 100 | > 100 | > 100 µM |  |  |  |  |  |  |  | 
